Experimental data taken from patent US20030228988A1, “Ozone solutions” (Otre AB, priority 2002, published 2003).
Where two headings read alike, the source gives them in different places.

How the values were obtained:
[1] = Ozone stability in the presence of acetic and oxalic acid; conditions: for increase of the lifetime of the ozone (factor) compared with pure ozone solution: acid approximately 0.01M, ozone approximately 6 ppm
Procedure: The following procedure was applied in the analysis of ozone concentration. Magnetic stirrer was used to obtain a homogeneous solution. The ozone concentration, pH and temperature were registered every 30 seconds, until ozone no longer could be detected.
An aqueous ozone solution with a concentration of approximately 6 ppm was tapped directly from the ozone generator into a beaker. The ozone electrode was used to register the changes in concentration. Acetic or oxalic acid was added directly to the solution. The concentration of the acids was approximately 0.01M.

[2] = Ozone stability in the presence of different surfactants (ozone electrode); format: physicochemical; conditions: ozone approximately 6 ppm, surfactant approximately 0.1 mM, approximately the same pH
Procedure: Deionised water was used in all aqueous solutions. All experiments were made at room temperature, ˜23° C. The variation of the temperature between the different experiments was relatively small and should not have any significant effect on the outcome. All tests were made at least twice in order to verify the reproducibility. […] Magnetic stirrer was used to obtain a homogeneous solution. […] The concentration of the surfactants was approximately 0.1 mM. […] The solution was filtered to remove the formed precipitate, AgBr.

[3] = Ozone stability in the presence of different concentrations of SDS; format: physicochemical; conditions: 200 mM vs 0.1 mM SDS, ozone approximately 6 ppm
Procedure: One of the surfactants, SDS, was tested at two different concentrations: Low concentration (0.1 mM), where the surfactant exists […], and high concentration (200 mM), where the surfactant exists in the form of both micelles and linear (paraffinic) chains. […] However, in order to obtain these states the surfactant solution has to be heated.
Magnetic stirrer was used to obtain a homogeneous solution.
SDS was added directly to the aqueous ozone solution, yielding solutions having concentrations of 0.1 mM and 200 mM with respect to SDS The result is seen in FIG. 4, namely that the higher concentration of SDS increases the lifetime of ozone by a factor 5 compared with the lower concentration.

[4] = Oxidation of organic acids by ozone, 13C NMR and IR before and after ozone treatment; format: physicochemical; conditions: 0.1M acid bubbled with ozone for five hours
Procedure: The aqueous solutions of the acids were analysed using ^13C NMR and IR spectroscopy before and after treatment with ozone.
In order to verify that the organic acids had not been oxidised by ozone an additional test was made 300 ml of an aqueous solution of acid (0.1M, 30×10^−3 mol) was bubbled with ozone for five hours. The gaseous concentration of ozone was ˜100 g/m^3. The airflow was 0 2 l/minute, which gives 1.2 g ozone/h ([…]). The aqueous solutions were analysed using ^13C NMR and IR spectroscopy before and after treatment with ozone. The results are shown in FIGS. 9-12, namely that the peaks in the spectrograms of the pure acid solutions (FIGS. 9 and 11) had not changed their appearance after prolonged treatment with ozone (FIGS. 10 and 12)

With CC(=O)O [Acetic acid, acetic acid] the “effect on ozone stability” value [1] was “positive effect on ozone stability” and the “increase of the lifetime of the ozone (factor) compared with pure ozone solution” value [1] was 2.

With CCCCCCCCCCCCOS(=O)(=O)[O-].[Na+] [SDS, sodium dodecyl sulphate] the “increase of the lifetime of ozone compared with a pure ozone solution” value ([2]; ~23° C.) was “three to four fold” and the “increase of the lifetime of ozone (factor), higher concentration compared with the lower concentration” value [3] was 5.

With CCCCCCCCCCCCO[C@@H]1O[C@H](CO)[C@@H](O[C@H]2O[C@H](CO)[C@@H](O)[C@H](O)[C@H]2O)[C@H](O)[C@H]1O [dodecyl b-D-maltoside] the “depletion rate of ozone relative to the depletion rate of pure ozone solution” value [2] was “about half”.

For O=C(O)C(=O)O [oxalic acid], the “decomposition / reaction of the acid after treatment with ozone (13C NMR, IR)” value [4] was “does not react with ozone”, the “effect on ozone stability” value ([1]; FIGS. 5 and 6) was “positive effect on ozone stability” and the “increase of the lifetime of the ozone (factor) compared with pure ozone solution” value [1] was 2.
